Measurements as given in PMC8049018, “A MIF‐Derived Cyclopeptide that Inhibits MIF Binding and Atherogenic Signaling via the Chemokine Receptor CXCR2” (Chembiochem, 2020).
Bridge positions count the residues as written; N and C are the ends. Ends that are not written are not given here. Peptide text beside a SMILES is read from it. Fluos = 5(6)-carboxyfluorescein

How the values were obtained:
[1] = target: T1, CXCR2 (Homo sapiens, UniProt P25025); test: Label-free dynamic mass redistribution (DMR), HEK293-CXCR2 transfectants; assay type: cell-based; conditions: peptide 500 μM (MIF(47–56) also 100–500 μM), 30 s intervals
T1 construct: expressed in transfected cells
T1 sequence (P25025 1-360): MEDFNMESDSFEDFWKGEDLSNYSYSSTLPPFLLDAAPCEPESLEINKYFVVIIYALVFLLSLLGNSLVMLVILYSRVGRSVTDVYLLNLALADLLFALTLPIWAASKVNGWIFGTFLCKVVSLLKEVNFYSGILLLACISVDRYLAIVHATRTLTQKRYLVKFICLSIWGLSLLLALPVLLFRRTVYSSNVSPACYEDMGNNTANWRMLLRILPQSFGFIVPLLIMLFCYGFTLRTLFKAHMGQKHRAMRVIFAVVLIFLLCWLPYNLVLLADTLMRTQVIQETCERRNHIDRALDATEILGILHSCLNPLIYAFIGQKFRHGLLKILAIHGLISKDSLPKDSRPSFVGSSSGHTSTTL
Experimental: Label‐free dynamic mass redistribution: Dynamic mass redistribution (DMR) analysis ^[22] was performed according to Perkin Elmer's instructions for label‐free DMR measurements. Briefly, cells were seeded at a density of 40 000 cells per well of an EnSpire label‐free 96‐well fibronectin‐coated cell assay microplate (PerkinElmer). Post‐seeding, the cells were equilibrated at RT for 30 min and cultivated overnight in serum‐containing DMEM/F‐12 medium. The next day, the cells were washed four times with assay buffer containing 20 mM HEPES and 1 % DMSO in HBSS (pH 7.4), using an aspiration wand leaving a residual volume of 35 μL. The plate was equilibrated at RT for 2 h. […] Before adding the peptides, baseline measurements were performed for 10 min (30 s intervals) using the EnSpire Label‐free Multimode Plate Reader (PerkinElmer). Then, 20 μL of the respective peptides were added to the cells at a final concentration of 500 μM followed by real‐time measurements over a time period of 40 min (30 s intervals). The signal output represents a cumulative response overlay of all cells.

[2] = target: T1, CXCR2; test: Receptor binding assay, flow cytometry, HEK293-CXCR2 vs HEK293-WT; conditions: 3.7 or 7.4 μM, on ice 2 h, HEK293-CXCR2 compared to non-transfected HEK293, flow cytometry, n=4–7
[3] = target: T2, Alexa‐488‐labeled recombinant MIF (Alexa‐MIF) (Homo sapiens, UniProt P14174); test: Fluorescence spectroscopic titration of Alexa-MIF with peptide; assay type: binding; conditions: Alexa-MIF 10 nM, peptide 0.1- to 1000-fold molar excess, 10 mM sodium phosphate pH 7.4, 1 % HFIP, RT, emission at 519 nm, three titrations
T2 construct: made in house
T2 sequence (P14174 1-115): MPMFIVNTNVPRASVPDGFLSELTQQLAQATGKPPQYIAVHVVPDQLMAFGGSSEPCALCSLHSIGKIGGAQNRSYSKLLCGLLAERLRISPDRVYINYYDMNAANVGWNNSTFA
Experimental: Fluorescence spectroscopy: Fluorescence spectroscopic titrations were performed on a Jasco FP‐6500 spectrofluorometer. Alexa Fluor‐488‐labelled rMIF (Alexa‐MIF) was reconstituted in 20 mM sodium phosphate buffer (pH 7.2). […] The excitation wavelength was set at 492 nm and fluorescence emission spectra were recorded between 500 and 600 nm within 2–3 min after the preparation of the mixtures at room temperature (RT).

[4] = test system: Primary human monocytes (MIF/CXCR2 axis); test: Transwell migration assay, MIF-induced monocyte chemotaxis; assay type: cell-based; conditions: peptide 5 μM, human MIF 8 nM, Transwell 5 μm pores, 3 h, 37 °C, n=3–11
Experimental: Transwell migration assay: The inhibitory potential of the MIF‐derived peptide analogues was measured by Transwell chemotaxis assay using CD14^+ monocytes isolated from PBMCs or the entire PBMC fraction, as previously described. ^[7a] Briefly, PBMCs from buffy coats or CD14+ monocytes isolated from PBMCs were diluted in RPMI1640 supplemented with 0.5 % bovine serum albumin (BSA) at a density of […] cells/mL. Cells were placed into the upper chamber of a 24‐well cell culture inserts with 5 μm pore size (Corning). 8 nM full‐length MIF served as chemoattractant and was pre‐incubated with or without 5 μM of the respective peptides and applied to the lower chamber. After a 3 h migration interval at 37 °C (5 % CO2), cells were collected and counted via a CASY Cell Counter (OLS, OMNI Life Science, Bremen, Germany).

[5] = Proteolytic stability assay in human plasma; assay type: in vitro ADME; conditions: 37 °C; for half-life: human plasma (citrate-anticoagulated), human plasma (citrate 10 mM, pH 7.0), peptide 200–500 μg/mL, TCA stop, intact peptide by C18 RP-HPLC (214 nm) peak area, MALDI-MS verified, three independent incubations, read-out: t1/2 in human blood plasma (converted)
Experimental: Proteolytic stability assay: Proteolytic stability studies of peptides were performed following a previously described experimental protocol.[ ^20 , ^23 ] Briefly, peptides were incubated (200–500 μg/mL) in human plasma, isolated from the blood of healthy volunteers by routine methods using citrate (10 mM, pH 7.0) as an anti‐coagulant, at 37 °C for various time intervals. At the end of each interval, a stop solution (1 : 1) containing aqueous trichloroacetic acid (TCA, 10 %, v/v) was added and the samples kept on ice for 10 min. Samples were centrifuged at 20 000 g for 4 min, the supernatants retrieved and mixed 1 : 2 with a solution of 80 % HPLC buffer B (0.05 % (v/v) TFA in 90 % (v/v) CH3CN in water) and 20 % HPLC buffer A (0.058 % (v/v) TFA in water). Samples were analyzed by RP‐HPLC (detection at 214 nm) using a Nucleosil 100 C18 column (Grace; length 33 mm, i.d. 8 mm, 7 μm particle size). ^[24] The flow rate was 2 mL/min and the samples were analyzed with an elution program consisting of 2 steps; first step: 10 % HPLC buffer B in buffer A (1 min) and second step: a gradient from 10 to 90 % HPLC buffer B in buffer A (6 min). Peaks were collected, immediately frozen, lyophilized, and their molecular weights determined by MALDI‐MS. The HPLC peak areas were used to quantify remaining peptides in plasma.

[6] = CD concentration dependence study; assay type: physicochemical; conditions: between 5 and 100 μM
Description: Peptides: Linear MIF‐derived peptides were generated by standard Fmoc‐based solid phase peptide synthesis (SPPS) in their N‐terminally acetylated and C‐terminally amidated forms and purified by reversed‐phase (RP)‐HPLC as previously described. ^[18] 5(6)‐Carboxyfluorescein (Fluos) N‐terminally labeled peptides were synthesized as described. ^[19] Peptide purity was verified by matrix‐assisted laser desorption ionization mass spectrometry (MALDI‐MS). Cyclic peptide derivatives MIF(cyclo0), MIF(cyclo4), MIF(cyclo6), and MIF(cyclo10), containing terminal cysteines and different numbers of glycine and serine spacer residues to tailor ring size, were custom‐synthesized and purified (>96 % purity grade) by American Peptide Company (APC), Inc./Bachem (Bubendorf, Switzerland), or as described previously, ^[20] applying standard disulfide‐based oxidation procedures. […] The sequence of the scrambled control peptide of MIF(47–56) is […].
Circular dichroism spectroscopy: CD spectra were recorded on a Jasco J‐715 spectropolarimeter in a wavelength range between 190 and 250 nm. Spectra were measured at 0.1 nm intervals and a response time of 1 s. […] Each spectrum was measured three times, averaged and smoothed after background subtraction of the buffer. […]

Compound	CXCR2-binding response (change of resonant wavelength Δpm) [1]	half-life [5] [min]	Concentration dependence of CD spectra (solubility/aggregation check) [6]	other results
Ac-SFESGPAGML-NH2 [scrambled control sequence, reference compound]	fully abrogated	–	–	–
Fluos‐MIF(47–56): fluorescently labeled MIF(47–56), 5(6)‐carboxyfluorescein at the N-terminus (Fluos-MAFGGSSEPC; UniProt P14174 48-57, looked up, fragment)	–	–	–	Binding to cell surface-expressed CXCR2 (MFI) [2]: specifically bound to full‐length CXCR2
Ac-LMAFGGSSEP-NH2 [MIF(47–56)]	found to bind to HEK293‐CXCR2 transfectants	~30	no concentration dependence of the CD spectra	Direct binding to MIF [3]: does not directly bind to MIF; Inhibition of MIF-induced monocyte chemotaxis [4]: significantly inhibited
CSCC[C@@H]1NC(=O)[C@H](CC(C)C)NC(=O)CNC(=O)CNC(=O)[C@H](CO)NC(=O)CNC(=O)CNC(=O)[C@@H](N)CSSC[C@@H](C(=O)O)NC(=O)CNC(=O)CNC(=O)[C@H](CO)NC(=O)CNC(=O)CNC(=O)[C@@H]2CCCN2C(=O)[C@H](CCC(=O)O)NC(=O)[C@H](CO)NC(=O)[C@H](CO)NC(=O)CNC(=O)CNC(=O)[C@H](Cc2ccccc2)NC(=O)[C@H](C)NC1=O [MIF(cyclo10)] (H-CGGSGGLMAFGGSSEPGGSGGC-OH; disulfide 1-22)	–	> 480	no concentration dependence of the CD spectra	Time up to which appreciable amounts of intact peptide were detectable ([5]; human plasma, C18 HPLC and MALDI-MS): up to 48 h; Resistance to proteolysis relative to MIF(47–56) ([5]; human plasma, ratio of t1/2): more than 16 fold
